Each structure is given as a SMILES string.

The target in one assay is T1, Endothelin-1 receptor (Homo sapiens, UniProt P25101).
T1 sequence (P25101 whole entry): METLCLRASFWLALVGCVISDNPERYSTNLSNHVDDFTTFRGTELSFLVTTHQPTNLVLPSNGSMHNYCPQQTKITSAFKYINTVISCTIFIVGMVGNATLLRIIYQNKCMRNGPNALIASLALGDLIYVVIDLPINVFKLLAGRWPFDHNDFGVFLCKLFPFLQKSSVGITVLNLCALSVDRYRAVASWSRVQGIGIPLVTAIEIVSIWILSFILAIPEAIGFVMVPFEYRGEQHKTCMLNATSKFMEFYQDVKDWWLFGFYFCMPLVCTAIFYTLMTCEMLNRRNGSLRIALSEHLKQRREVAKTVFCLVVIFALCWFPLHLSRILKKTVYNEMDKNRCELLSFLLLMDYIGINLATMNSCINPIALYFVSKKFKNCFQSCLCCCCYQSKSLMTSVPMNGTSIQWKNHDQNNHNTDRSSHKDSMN

The target of assay [1] is T2, Endothelin receptor type B (Homo sapiens, UniProt P24530).
T2 sequence (P24530 whole entry): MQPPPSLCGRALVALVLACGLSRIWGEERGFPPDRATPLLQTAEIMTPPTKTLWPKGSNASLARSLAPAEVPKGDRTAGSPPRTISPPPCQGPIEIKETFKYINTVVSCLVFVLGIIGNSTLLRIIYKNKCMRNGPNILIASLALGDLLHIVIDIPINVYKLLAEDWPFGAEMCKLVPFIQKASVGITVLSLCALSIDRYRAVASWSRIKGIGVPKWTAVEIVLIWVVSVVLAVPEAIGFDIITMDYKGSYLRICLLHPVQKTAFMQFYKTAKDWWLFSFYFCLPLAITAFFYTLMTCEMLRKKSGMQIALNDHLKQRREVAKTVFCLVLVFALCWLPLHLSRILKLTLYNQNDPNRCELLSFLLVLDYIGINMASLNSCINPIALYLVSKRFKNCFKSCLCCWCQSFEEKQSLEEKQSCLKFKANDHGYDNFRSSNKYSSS

Consider `CCCCc1ccc2c(n1)[C@@H](c1ccc(OC)cc1C[C@H](C)C(=O)O)[C@H](C(=O)O)[C@H]2c1ccc2c(c1)OCO2` [J-104132], for which the Ki was found to be 0.03 nM at Endothelin-1 receptor and 0.1 nM in assay [1].
